Experimental findings from patent US20070248672A1, “Indole and Azaindole Derivatives with Antitumor Action” (priority 2004, published 2007) are described below.

Where a name gives a salt, the structure may show the parent alone. Read-outs that look alike come from different tables or passages of the source. Where only a bound is given, the exact number is not on record here.

The subject of test [1] is HT29 cells. The test can be described thus: Co-treatment with topotecan, HT29 cells (Combination Index according to Kern). In kind it is cell-based, human. The note with it: HT29 cells. Here is the method: (§1) The cells (HT29 and HT29/Mit: 40,000 cells/ml, LoVo, LoVo/Dx and HCT116: 50,000 cells/ml) are seeded in 100 μl of the respective culture media in 96-well plates. 24 hours after seeding, an aliquot (10 μl) of drug at the various concentrations is added. In the samples in which the effect of the combination of two compounds is to be tested the inhibitor is added immediately before the cytotoxic. For each dose or combination of doses/drugs the effect of the treatment is determined in 4-8 replicates.
(§2) After 72 hours of treatment the antiproliferative effect is evaluated using the sulforhodamine B (SRB) assay: the cells are fixed by adding 25 μl of 50% TCA to each well and left for 1 hour at 4° C. After washing them with water and allowing them to dry, 100 μl of 0.4% SRB in 1% acetic acid are added and left for 30 minutes at room temperature. After 4 washes in 1% acetic acid, they are left to dry then the dye fixed by the proteins is dissolved under basic conditions with 100 μl 10 mM cold Tris and the solution is read using a spectrophotometer at 550 nm.
(§3) Percentage cell growth is calculated as the optical density of treated samples compared to the optical density of controls (untreated cells).
(§4) The Combination Index (C.I.) was determined according to Kern's method, 1988 (who continued from Drewinko B, 1976) (Kem D. H., Cancer Res. 48, 117-121, 1988; Drewinko B., Cancer Biochem. Biophys. 1, 187-195, 1976) by means of the following formula: […], where SFa and SFb are the fractions of cells surviving to treatment with compound a and b, respectively; SFab is the fraction surviving to the combination of compounds a and b. If the result is =1, the interaction between the two compounds is additive; if it is >1, the interaction between the two compounds is synergistic; if it is <1, the interaction between the two compounds is antagonistic.

For test [2], the system named is HT29/Mit cells. The test can be described thus: Co-treatment with topotecan, HT29/Mit resistant cells (Combination Index according to Kern). In kind it is cell-based, human. The conditions noted are these: HT29/Mit cells. Here is the method: as §1, §2, §3, §4
Test [3] deals with HT29/Mit cells. The test can be described thus: Antiproliferative activity, 72 h treatment, SRB assay, HT29/Mit resistant line. The test is classed as cell-based, human. The conditions noted are these: Homo sapiens. Here is the method: (§5) HT29 and HT29/Mit (line obtained by prolonged exposure to mitoxantrone, and characterised by overexpression of BCRP, which confers cross resistance to topotecan, irinotecan and to its metabolite SN38): maintained in McCoy 5A medium+10% FCS.
(§6) 2.2 Scheme of the Antiproliferative Activity Experiment (Treatment Time: 72 Hours)
as §1, §2, §3
(In general: Sulforhodamine B stains cellular protein and so reports cell mass.)

Test [4] concerns HT29 cells. The test can be described thus: Antiproliferative activity, 72 h treatment, SRB assay, HT29. The test is classed as cell-based, human. Here is the method:
as §5, §6, §1, §2, §3

Test [5] deals with Vacuolar ATPase in bovine chromaffin cells membranes (BCG) (Bos taurus, UniProt P23956+Q29466). The test can be described thus: Vacuolar ATPase inhibition in bovine chromaffin cells membranes (BCG). The test is classed as biochemical. The conditions noted are these: read-out: ATPase activity (IC50) BCG; bovine chromaffin cell membranes. Here is the method:
Inhibition of bafilomycin sensitive ATPase activity is assayed by measuring the release of inorganic phosphate during 30 minutes of incubation, at 37° C., of the human osteoclastoma microsomal fraction in 96-well plates. The reaction medium contains 1 mM ATP, 10 mM Hepes-Tris buffer pH 8, 50 mM KCl, 5 μM valinomycin, 5 μM nigericin, 1 mM CDTA-Tris, 100 μM ammonium molybdate, 0.2 M sucrose and the microsomal fraction (20 μg protein/ml). The reaction is initiated by adding MgSO4 and terminated, after 30 minutes, by adding 4 volumes of the reagent malachite green, prepared according to Chan K., Anal. Biochem. 157, 375-380, 1986.
1.2 Determination of Vacuolar ATpase Inhibition in the Bovine Chromaffin Cells Membranes (BCG)
About 20 adrenal glands (Cidon S., J. Biol. Chem. 258, 2892-2898, 1983) are removed from healthy bovines; the medulla is quickly separated from the cortex, which is discarded. The medulla is homogenised at 4° C. with a suitable medium at pH 7.5, then filtered. The remaining solid material is further homogenised, filtered and recombined with the preceding filtrate, resuspended and centrifuged at 1000 g for 15 minutes; the supernatant obtained is centrifuged at 10000 g for 20 minutes. The resultant pellet is resuspended and stratified through a sucrose gradient formed of a lower part of 15 ml 1.5 M sucrose and an upper part of 10 ml 1.2 M sucrose. After overnight centrifugation at 4° C. with a SW28 rotor at 20000 rpm, the chromaffiln cells sediment into a pellet. This latter is resuspended, centrifuged at 3000 g for 10 minutes, and the supernatant obtained is centrifuged at 200000 g for 60 minutes. The pellet is then resuspended in 4 ml of a suitable medium containing 0.2 μg/ml pepstatin A and 0.4 μg/ml leupeptin and stored under liquid nitrogen.
The method for ATPase inhibition assay is the same as that followed for the osteoclastoma.

For test [6], the system named is HT29/Mit human colon carcinoma xenografts. The test can be described thus: HT29/Mit human colon carcinoma xenograft, antitumor activity. The test is classed as in vivo, athymic Swiss nude mice. From the text: 1.1 Model of HT29/Mit human colon carcinoma xenografts-Antitumor activity Female athymic Swiss nude mice (8-10 weeks old) (Charles River, Calco, Italy) were used for the experiments. The animals were maintained at constant temperature and humidity, and were allowed to eat and drink freely. The experimental protocol was approved by the Ethics Committee for Animal Experimentation of the Istituto Nazionale Tumori of Milan. The antitumour effectiveness of the compounds of the invention under discussion was tested on athymic mouse models implanted with HT29 and/or HT29/Mit tumour cells: this latter variety is highly resistant to topotecan treatment. The tumour cells were implanted in vivo via subcutaneous injection of 10^7 cells taken from in vitro cultures. Randomized groups of five mice with bilateral subcutaneous tumours were used for the experiment. Topotecan or other known antitumour agents (dissolved in distilled water or an appropriate solvent) and the compounds of the invention (dissolved in Cremophor EL: ethanol: saline solution in the proportions 5:5:90, or in an appropriate solvent) were administered orally from the third day, alone or in combination, in agreement with a treatment scheme selected in an appropriate manner depending on the type of compound to be studied. The weight (or volume) of the tumour in treated mice compared to controls is represented graphically on the y-axis against time (x-axis).
A general note: In xenograft studies the graft and the host belong to different species.

Test [7] deals with HepG2 cells. The test can be described thus: Antiproliferative activity, 48 h treatment, ATPlite luminescence assay, HepG2. The test is classed as cell-based, human. The conditions noted are these: HepG2, 48 h treatment, read-out: Antiproliferative activity (IC50 ± S.D.) HepG2 48 h treatment. Here is the method:
HepG2: maintained in EMEM medium+10% FCS.
2.3 Scheme of the Antiproliferative Activity Experiment (Treatment Time: 48 Hours)
The cells (concentration: 30,000 cells/ml) are seeded in 90 μl of the respective culture media in 96-well plates. 24 hours after seeding, an aliquot (10 μl) of the drug at the various concentrations is added (for each concentration there are 3 replicates). After 48 hours of treatment the antiproliferative effect is evaluated with a luminescence assay (Perkin Elmer Life Sciences ATPlite):
50 μl of a lysis solution are added to each well followed by an equal volume of a solution containing luciferase and D-luciferin. The ATP present in all the metabolically active cells brings about the transformation reaction of D-luciferin, catalysed by luciferase, to produce a luminescent signal as described in the following scheme: ATP+D-luciferin+O2→Oxyluciferin+AMP+PP1+CO2+Light
The luminescence produced (expressed in counts per second, CPS) is measured by means of a microplate scintillation analyzer (Perkin Elmer Life Sciences Top Count).
Percentage inhibition of luminescence in the treated cells compared to the control is calculated; concentration-response curves are then analysed using Grafit v.5.0.
A general note: Cellular ATP, detected with luciferase, serves as a proxy for viable cell number.

Setting [8] is: HT-29, HT29/Mit, after 72 hours of treatment, range stated for the group, read-out: IC50 values in the resistant line.
[9] abbreviates: HT-29/Mit resistant line, 72 h treatment, read-out: Antiproliferative activity (IC50 ± S.D.) HT-29/Mit.
Where [10] appears, read: Homo sapiens, HT-29, HT29, after 72 hours of treatment, range stated for the group, read-out: IC50 values in the sensitive line.
Where [11] appears, read: Homo sapiens, HT-29, 72 h treatment, read-out: Antiproliferative activity (IC50 ± S.D.) HT-29 72 h treatment.

Vacuolar ATPase in bovine chromaffin cells membranes (BCG), sequence (P23956 whole entry, looked up): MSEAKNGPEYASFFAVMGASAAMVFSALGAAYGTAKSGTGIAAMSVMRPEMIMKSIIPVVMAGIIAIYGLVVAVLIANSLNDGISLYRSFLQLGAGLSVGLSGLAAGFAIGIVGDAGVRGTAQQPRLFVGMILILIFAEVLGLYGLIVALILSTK
Vacuolar ATPase in bovine chromaffin cells membranes (BCG), sequence (Q29466 whole entry, looked up): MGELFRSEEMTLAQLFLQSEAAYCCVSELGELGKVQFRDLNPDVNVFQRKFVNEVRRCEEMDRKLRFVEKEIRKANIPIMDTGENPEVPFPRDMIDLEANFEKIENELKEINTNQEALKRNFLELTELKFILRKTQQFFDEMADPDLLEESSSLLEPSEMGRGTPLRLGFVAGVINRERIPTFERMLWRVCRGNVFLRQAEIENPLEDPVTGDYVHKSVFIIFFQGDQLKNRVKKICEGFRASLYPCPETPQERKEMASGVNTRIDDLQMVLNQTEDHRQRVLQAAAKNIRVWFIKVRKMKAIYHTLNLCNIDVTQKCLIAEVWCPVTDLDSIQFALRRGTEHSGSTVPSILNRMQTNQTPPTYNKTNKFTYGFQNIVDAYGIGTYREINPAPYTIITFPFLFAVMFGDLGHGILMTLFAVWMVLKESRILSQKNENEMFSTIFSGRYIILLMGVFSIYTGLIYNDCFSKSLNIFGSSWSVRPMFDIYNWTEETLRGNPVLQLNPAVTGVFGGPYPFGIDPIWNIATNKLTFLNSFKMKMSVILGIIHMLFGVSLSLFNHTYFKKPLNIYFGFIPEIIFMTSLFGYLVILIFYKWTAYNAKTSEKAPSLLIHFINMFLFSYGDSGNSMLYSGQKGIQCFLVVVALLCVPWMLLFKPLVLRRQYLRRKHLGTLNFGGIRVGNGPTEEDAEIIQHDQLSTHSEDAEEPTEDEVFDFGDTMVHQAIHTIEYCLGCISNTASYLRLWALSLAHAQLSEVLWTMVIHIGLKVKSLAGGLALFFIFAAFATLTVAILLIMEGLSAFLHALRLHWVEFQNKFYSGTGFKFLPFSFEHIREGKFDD

Take `COC(=O)c1c(-c2ccc(OC)cc2)c2cc(OC)c(OC)cc2n1CCO` [Example 12, 1-(2-Hydroxyethyl)-5,6-dimethoxy-3-(4-methoxyphenyl)-1H-indole-2-carboxylic acid methyl ester]: the “effect in combination with topotecan” value in test [1] and in test [2] was “synergistic effects” each time. For the same compound, the IC50 is 100 to 3000 nM in test [3] (setting [8]); 660 ± 300 nM in test [3] (setting [9]); 5000 to 42000 nM in test [4] (setting [10]); 4600 nM in test [4] (setting [11]); 247 nM in test [5].
For `COc1ccc(-c2c3n(c4cc(OC)c(OC)cc24)CCNC3=O)cc1` [Example 27, 7,8-Dimethoxy-10-(4-methoxyphenyl)-3,4-dihydro-2H-pyrazino[1,2-a]indol-1-one], the IC50 in test [3] (setting [9]) turned out to be 2900 nM; in test [4] (setting [11]), 5200 nM; in test [5], 248 nM.
Turning to `CC[C@@]1(O)C(=O)OCc2c1cc1n(c2=O)Cc2cc3c(CN(C)C)c(O)ccc3nc2-1` [Topotecan, reference compound], the IC50 is 50600 nM in test [3] (setting [9]) and 70 ± 10 nM in test [4] (setting [11]). Besides, the results for the tumor growth inhibition in test [6] (1 mg/kg p.o.) and in test [6] (2 mg/kg p.o.) were 62% and 80%, respectively.
Turning to `COc1ccc(-c2c3n(c4cc(OC)c(OC)cc24)CCNC3)cc1` [Example 28, 7,8-Dimethoxy-10-(4-methoxyphenyl)-1,2,3,4-tetrahydro-pyrazino[1,2-a]indole hydrochloride], the IC50 is 100 to 3000 nM in test [3] (setting [8]); 530 nM in test [3] (setting [9]); 5000 to 42000 nM in test [4] (setting [10]); 37300 nM in test [4] (setting [11]); 1270 nM in test [5].
For `CCOC(=O)c1[nH]c2cc(OC)c(OC)cc2c1-c1ccccc1` [Example 4, 5,6-Dimethoxy-3-phenyl-1H-indole-2-carboxylic acid ethyl ester], in that order: 100 to 3000 nM, < 100 nM, 5000 to 42000 nM, 37300 nM and 350 nM.
Take `COC(=O)c1[nH]c2cc(OC)c(OC)cc2c1-c1ccc(OC)c(OC)c1` [Example 2, -3-(3,4-Dimethoxyphenyl)-5,6-dimethoxy-1H-indole-2-carboxylic acid methyl ester]: the IC50 turned out to be 25500 ± 4500 nM in test [7] (Homo sapiens), 15200 ± 300 nM in test [3] (setting [9]) and 35200 ± 5200 nM in test [4] (setting [11]).
For the compound `COc1ccc(-c2c(C#N)n(CCN(C)C)c3cc(OC)c(OC)cc23)cc1` [Example 18, 1-(2-Dimethylaminoethyl)-5,6-dimethoxy-3-(4-methoxyphenyl)-1H-indole-2-carbonitrile hydrochloride], the IC50 in test [3] (setting [8]) was 100 to 3000 nM; in test [3] (setting [9]), 150 nM; in test [4] (setting [10]), 5000 to 42000 nM; in test [4] (setting [11]), 16700 nM; in test [5] it was 567 nM.
Turning to `N.N.[Cl][Pt][Cl]` [Cisplatin, reference compound], the IC50 in test [7] is > 25000 nM; in test [4] (HT-29, 72 h treatment, read-out: Antiproliferative activity (IC50 ± S.D.) HT-29 72 h treatment), 6800 nM.
On to `COc1ccc(-c2c(-c3nnco3)[nH]c3cc(OC)c(OC)cc23)cc1` [Example 26, 5,6-Dimethoxy-3-(4-methoxyphenyl)-2-[1,3,4]oxadiazol-2-yl-1H-indole], for which the “effect in combination with topotecan” value in test [1] and in test [2] was “synergistic effects” throughout. Further, the IC50 in test [3] (setting [8]) is 100 to 3000 nM; in test [3] (setting [9]), 2700 nM; in test [4] (setting [10]), 5000 to 42000 nM; in test [4] (setting [11]), 40300 nM; in test [5], 710 nM.
Turning to `COc1ccc(-c2c(-c3ncn[nH]3)[nH]c3cc(OC)c(OC)cc23)cc1` [Example 23, 5,6-Dimethoxy-3-(4-methoxyphenyl)-2-(2H-[1,2,4]triazol-3-yl)-1H-indole], the “effect in combination with topotecan” value in test [1] and in test [2] was “synergistic effects” in each case. In addition, the IC50 was 100 to 3000 nM in test [3] (setting [8]); 2300 nM in test [3] (setting [9]); 5000 to 42000 nM in test [4] (setting [10]); 41900 nM in test [4] (setting [11]); 470 nM in test [5].
For `COC(=O)c1[nH]c2cc(OC)c(OC)cc2c1-c1ccccc1` [Example 3, 5,6-Dimethoxy-3-phenyl-1H-indole-2-carboxylic acid methyl ester], the IC50 was 100 to 3000 nM in test [3] (setting [8]); 150 nM in test [3] (setting [9]); 5000 to 42000 nM in test [4] (setting [10]); 37300 nM in test [4] (setting [11]); 628 nM in test [5].
For the compound `COc1ccc(-c2c(C#N)[nH]c3cc(OC)c(OC)cc23)cc1` [Example 17, 5,6-dimethoxy-3-(4-methoxyphenyl)-1H-indole-2-carbonitrile], the IC50 in test [3] (setting [9]) came to 2500 nM; in test [4] (setting [11]), 4900 ± 500 nM; in test [5], 273 nM.
